Legend:
Bibionidae = conditions: chronic/long-term; duration: 28 days
Tagia sp. = conditions: for LC50: acute, duration: 14 days, mortality
Daphnia magna = conditions: chronic/long-term; duration: 21 days; reproduction
Plant = conditions: chronic/long-term; duration: 14 days
Landoltia sp. = conditions: chronic/long-term; duration: 14 days
Apis mellifera = conditions: acute, mortality
Typhlodromus pyri = assay: LR50; higher = less toxic; conditions: not reported; mortality

**Q.** Which NOEC (Bibionidae) does the source give for CC(Oc1ccc(Oc2cnc3cc(Cl)ccc3n2)cc1)C(=O)O (stereo not drawn) [Quizalofop] here?
**A.** The NOEC was 35.7 mg/L.

**Q.** And the LC50 (Tagia sp.)?
**A.** Its LC50 is 948 mg/kg.

**Q.** What about the NOEC (Tagia sp.; chronic/long-term) of the same compound?
**A.** Its NOEC is over 50 mg/kg.

**Q.** And the NOEC (Daphnia magna)?
**A.** The NOEC was 0.82 mg/L.

**Q.** And the LC50 (Oncorhynchus mykiss; acute, duration: 96 hours, mortality)?
**A.** Its LC50 is over 100 µg/mL.

**Q.** What about the NOEC (Oncorhynchus mykiss; chronic/long-term, duration: 28 days, growth) of the same compound?
**A.** The NOEC was 46.2 mg/L.

**Q.** What about the NOEC (Plant) of the same compound?
**A.** The NOEC was 0.094 mg/L.

**Q.** And the NOEC (Landoltia sp.)?
**A.** The NOEC was 3.2 mg/L.

**Q.** Which LC50 (Colinus virginianus; acute, oral, diet, mortality) does the source give for C[C@@H](Oc1ccc(Oc2cnc3cc(Cl)ccc3n2)cc1)C(=O)OCC1CCCO1 (stereo partly drawn) [Quizalofop P tefuryl] here?
**A.** Its LC50 is over 487 mg/kg-day.

**Q.** And the LD50 (Colinus virginianus; acute, oral, mortality)?
**A.** The LD50 was over 2150 mg/kg.

**Q.** And the NOEC (Colinus virginianus; reproduction developmental)?
**A.** Its NOEC is 69.4 mg/kg-day.

**Q.** What about the LD50 (Apis mellifera; dermal) of the same compound?
**A.** The LD50 was over 100 µg/piece.

**Q.** And the LD50 (Apis mellifera; oral, unspecified)?
**A.** The LD50 was 16.8 µg/piece.

**Q.** What about the LD50 (Rattus norvegicus; acute, oral, mortality) of the same compound?
**A.** Its LD50 is 1010 mg/kg-day.

**Q.** And the NOAEL (Rattus norvegicus; chronic, duration: 2 years, oral, diet)?
**A.** The NOAEL was 1.3 mg/kg-day.

**Q.** What about the NOAEL (Rattus norvegicus; reproduction developmental, mortality) of the same compound?
**A.** The NOAEL was 10 mg/kg-day.

**Q.** What about the NOAEL (Rattus norvegicus; reproduction developmental, reproduction) of the same compound?
**A.** The NOAEL was 16.9 mg/kg-day.

**Q.** What about the NOAEL (Rattus norvegicus; subchronic, duration: 90 days, oral, organ weight) of the same compound?
**A.** Its NOAEL is 1.7 mg/kg-day.

**Q.** And the LC50 (Tagia sp.)?
**A.** The LC50 was 16.9 mg/kg.

**Q.** And the LD50 (Anas platyrhynchos; acute, oral, unspecified, mortality)?
**A.** Its LD50 is over 2150 mg/kg.

**Q.** What about the NOEC (Anas platyrhynchos; reproductive) of the same compound?
**A.** Its NOEC is 68.7 mg/kg-day.

**Q.** And the LC50 (Anas platyrhynchos; short-term, oral, feed, mortality)?
**A.** Its LC50 is over 259 mg/kg-day.

**Q.** What about the LR50 (Typhlodromus pyri) of the same compound?
**A.** Its LR50 is under 100 g/ha.

— EPA's ToxValDB 9.5 (doi:10.2903/j.efsa.2009.205r)
